Measurements reported in US4610982A, “Anti-inflammatory benzo- and thieno-1,2-thiazine-3-carboxamide 1,1-dioxide derivatives, compositions, and method of use therefor” (Pfizer Inc., priority 1985, dated 1986).

Legend:
[1] = tested on: carrageenin-induced rat foot edema; experiment: carrageenin-induced rat foot edema test; format: in vivo; details: 32 mg./kg. dose level, oral route; rat hind paw edema three hours after carrageenin injection
Text: (§1) The novel 2-acetoxybenzoyl and ring-substituted α-arylpropionyl oxicam esters of the present invention are all readily adapted to therapeutic use as anti-arthritic agents. […] A. Winter et al., Proc. Soc. Exp. Biol. Med., Vol. 111, p. […] Additionally, hydrolysis of this novel product in vivo simultaneously produces two different anti-inflammatory compounds of known value (viz., piroxicam and ketoprofen). The other oxicam ester compounds of this invention also afford similar results.
In this test, anti-inflammatory activity is determined as the percent inhibition of edema formation in the hind paw of male albino rats (weighing 150-190g.) in response to a sub-plantar injection of carrageenin. The carrageenin is injected as a 1% aqueous suspension (0.015 ml.) one hour after oral administration of the drug, which is normally given in the form of an aqueous solution. Edema formation is then assessed by measuring the volume of the injected paw initially as well as three hours after the carrageenin injection. The increase in volume three hours after carrageenin injection constitutes the individual response. […]

lipoxygenase = lipoxygenase inhibition; format: biochemical
cyclooxygenase = cyclooxygenase (Homo sapiens, UniProt P23219); experiment: cyclooxygenase inhibition; format: biochemical
Text: as §1

Sequence of cyclooxygenase (P23219 24-599): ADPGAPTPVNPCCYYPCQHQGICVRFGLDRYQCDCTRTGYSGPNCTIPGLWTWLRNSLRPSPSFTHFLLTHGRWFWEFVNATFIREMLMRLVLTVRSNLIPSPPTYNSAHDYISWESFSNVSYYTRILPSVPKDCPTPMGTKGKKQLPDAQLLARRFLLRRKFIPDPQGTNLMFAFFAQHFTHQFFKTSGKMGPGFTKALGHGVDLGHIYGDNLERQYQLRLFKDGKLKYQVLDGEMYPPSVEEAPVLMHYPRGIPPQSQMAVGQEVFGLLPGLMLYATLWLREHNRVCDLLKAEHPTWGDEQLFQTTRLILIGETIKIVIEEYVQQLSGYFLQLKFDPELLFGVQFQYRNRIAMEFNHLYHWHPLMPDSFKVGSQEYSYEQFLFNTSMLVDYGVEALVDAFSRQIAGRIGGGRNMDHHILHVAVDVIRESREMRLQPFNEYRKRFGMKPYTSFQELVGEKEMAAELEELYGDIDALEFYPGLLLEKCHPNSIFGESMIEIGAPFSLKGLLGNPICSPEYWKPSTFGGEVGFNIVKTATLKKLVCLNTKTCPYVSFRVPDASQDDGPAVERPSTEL

IC50 (lipoxygenase): 0.02 µM | IC50 (cyclooxygenase): 10 µM
SMILES: CC(C(=O)OC1=C(C(=O)Nc2ccccn2)N(C)S(=O)(=O)c2ccccc21)c1cccc(C(=O)c2ccccc2)c1 (stereo not drawn) [Example 3, 4-[α-(3-benzoylphenyl)propionyloxy]-2-methyl-N-(2-pyridinyl)-2H-1,2-benzothiazine-3-carboxamide 1,1-dioxide]
inhibition in swelling [1]: 64%
